According to the supplement of paper PMC9663587:

Assays:
YKL-5-124 = compound: C=CC(=O)Nc1ccc(C(=O)Nc2[nH]nc3c2CN(C(=O)N[C@H](CN(C)C)c2ccccc2)C3(C)C)cc1 [YKL-5-124]; test: increase in dead-cell fraction, 72 h; higher = more death;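 further: breast cancer cell lines in 384-well plates, stained with Hoechst plus LIVE/DEAD far red dye and imaged, cells above an LDR intensity threshold counted dead, Hoechst-negative corpses included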
THZ531 [1] = compound: T1, CN(C)C/C=C/C(=O)Nc1ccc(C(=O)N2CCC[C@@H](Nc3ncc(Cl)c(-c4c[nH]c5ccccc45)n3)C2)cc1 [THZ531]; test: as above
BSJ-03-123 [2] = compound: T2, CC(=O)c1c(C)c2cnc(Nc3ccc(N4CCN(CCOCCOCCOCCNC(=O)COc5cccc6c5C(=O)N(C5CCC(=O)NC5=O)C6=O)CC4)cn3)nc2n(C2CCCC2)c1=O [BSJ-03-123]; test: as above
THZ1 = compound: CN(C)C/C=C/C(=O)Nc1ccc(C(=O)Nc2cccc(Nc3ncc(Cl)c(-c4c[nH]c5ccccc45)n3)c2)cc1 [THZ1]; test: as above
AZD2014 = compound: CNC(=O)c1cccc(-c2ccc3c(N4CCOC[C@@H]4C)nc(N4CCOC[C@@H]4C)nc3n2)c1 [AZD2014]
THZ531 [3] = compound: T1, THZ531
BSJ-01-175 = compound: CN(C)C/C=C/C(=O)Nc1ccc(O[C@@H]2CCC[C@@H](Nc3ncc(Cl)c(-c4c[nH]c5ccccc45)n3)C2)cc1 [BSJ-01-175]
[4] = compound: CO[C@@H](C)Cn1c(=O)n(C)c2cnc3ccc(-c4cncc(C(C)(C)O)c4)cc3c21
Rucaparib = compound: CNCc1ccc(-c2[nH]c3cc(F)cc4c3c2CCNC4=O)cc1 [Rucaparib]
BSJ-03-123 [5] = compound: T2, BSJ-03-123
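Wherever GR50, 72 h is given: breast cancer and non-malignant breast epithelial cell lines, Deep Dye Drop or Dye Drop imaging, nine half-log doses, GR normalized to time-zero plates and DMSO-only controls.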

Q: What does the source list for PDX1206?
A: increase in dead-cell fraction (YKL-5-124; 0.001 µM): -0.009; increase in dead-cell fraction (YKL-5-124; 0.003162 µM): -0.0048; increase in dead-cell fraction (YKL-5-124; 0.01 µM): 0.0238; increase in dead-cell fraction (YKL-5-124; 0.03162 µM): 0.0116; increase in dead-cell fraction (YKL-5-124; 0.1 µM): 0.0307; increase in dead-cell fraction (YKL-5-124; 0.3162 µM): 0.0443; increase in dead-cell fraction (YKL-5-124; 1 µM): 0.0358; increase in dead-cell fraction (YKL-5-124; 3.162 µM): 0.0858; increase in dead-cell fraction (YKL-5-124; 10 µM): 0.484; increase in dead-cell fraction (THZ531 [1]; 0.0001 µM): -0.0011; increase in dead-cell fraction (THZ531 [1]; 0.0003162 µM): 0.0053; increase in dead-cell fraction (THZ531 [1]; 0.001 µM): -0.0065; increase in dead-cell fraction (THZ531 [1]; 0.003162 µM): -0.0032; increase in dead-cell fraction (THZ531 [1]; 0.01 µM): -0.0015; increase in dead-cell fraction (THZ531 [1]; 0.03162 µM): -0.0072; increase in dead-cell fraction (THZ531 [1]; 0.1 µM): 0.347; increase in dead-cell fraction (THZ531 [1]; 0.3162 µM): 0.257; increase in dead-cell fraction (THZ531 [1]; 1 µM): 0.344; increase in dead-cell fraction (BSJ-03-123 [2]; 0.001 µM): -0.0047; increase in dead-cell fraction (BSJ-03-123 [2]; 0.003162 µM): -0.004; increase in dead-cell fraction (BSJ-03-123 [2]; 0.01 µM): -0.0083; increase in dead-cell fraction (BSJ-03-123 [2]; 0.03162 µM): -0.0021; increase in dead-cell fraction (BSJ-03-123 [2]; 0.1 µM): -0.0156; increase in dead-cell fraction (BSJ-03-123 [2]; 0.3162 µM): -0.0027; increase in dead-cell fraction (BSJ-03-123 [2]; 1 µM): -0.0025; increase in dead-cell fraction (BSJ-03-123 [2]; 3.162 µM): -0.0175; increase in dead-cell fraction (BSJ-03-123 [2]; 10 µM): 0.217; increase in dead-cell fraction (THZ1; 0.0001 µM): -0.0189; increase in dead-cell fraction (THZ1; 0.0003162 µM): 0.0062; increase in dead-cell fraction (THZ1; 0.001 µM): -0.0104; increase in dead-cell fraction (THZ1; 0.003162 µM): -0.008; increase in dead-cell fraction (THZ1; 0.01 µM): -0.0089; increase in dead-cell fraction (THZ1; 0.03162 µM): 0.0587; increase in dead-cell fraction (THZ1; 0.1 µM): 0.346; increase in dead-cell fraction (THZ1; 0.3162 µM): 0.424; increase in dead-cell fraction (THZ1; 1 µM): 0.513; GR50, 72 h (AZD2014): < 0.001 µM; GR50, 72 h (THZ531 [3]): 0.0456 µM; GR50, 72 h (BSJ-01-175): 0.0192 µM; GR50, 72 h [4]: 0.00134 µM; GR50, 72 h (Rucaparib): > 10 µM; GR50, 72 h (BSJ-03-123 [5]): 4.35 µM
